Twelve compounds from PubChem BioAssay (NCI) can be followed below.

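Method: 48-hour compound exposure of cells in 96-well plates, five concentrations, linear interpolation of endpoints. GI50: concentration for 50% inhibition of growth. TGI denotes the concentration required for complete inhibition of growth.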

Common to all, as to assay: NCI tumour cell line growth inhibition, 48 h
In assay [1] the test system is A498 renal.
Assay [2] concerns HOP-92 NSCLC.
The subject of assay [3] is HOP-62 NSCLC.
The subject of assay [4] is SF-539 CNS.
Assay [5] concerns SW-620 colon.
Assay [6] deals with OVCAR-8 ovarian.
The test system of assay [7] is MCF7 breast.
In assay [8] the test system is MDA-MB-231 breast.

On to `CC(=O)NNc1nc(C)c(C(=O)/C=C/c2ccc(N(C)C)cc2)s1`, for which the TGI in assay [1], in assay [2], in assay [3], in assay [4], in assay [5] and in assay [6] was more than 100 µM in each case.

For the compound `Cc1ccc2c(-c3ccnc(Nc4cccc(C(F)(F)F)c4)n3)c(-c3ccccc3)nn2n1`, the GI50 in assay [1] was 5.72 µM; in assay [7], 2.85 µM; in assay [2], more than 25 µM; in assay [8], 3.34 µM; in assay [3], 14.4 µM; in assay [4], 6.56 µM. Also, the GI50 in assay [5] was 7.81 µM; in assay [6], 9.27 µM. Also, the TGI in assay [1] was more than 15.4 µM; in assay [7], more than 25 µM; in assay [2] it was more than 25 µM; in assay [8], 8.64 µM; in assay [3] it was more than 25 µM; in assay [4] it was more than 19.6 µM. The TGI was more than 22.5 µM in assay [5] and more than 25 µM in assay [6].

As for `O=C(CCl)N1CCN(c2ccccn2)CC1`, the TGI amounted to 31.4 µM in assay [1]; 53 µM in assay [7]; 36.3 µM in assay [2]; 46.2 µM in assay [3]; 51.6 µM in assay [5]; 60.8 µM in assay [6].

For `CN(C)C/C=C/C(=O)Nc1ccc(C(=O)Nc2cccc(Nc3ncc(Cl)c(-c4c[nH]c5ccccc45)n3)c2)cc1`, the GI50 in assay [1] is 0.0189 µM; in assay [7] it was less than 0.0116 µM; in assay [8], 0.0332 µM; in assay [3] it was 0.0697 µM; in assay [4] it was 0.0199 µM; in assay [5], 0.031 µM. Besides, the GI50 in assay [6] is 0.0428 µM. The TGI in assay [1] was 0.119 µM; in assay [8], 0.33 µM; in assay [3] it was more than 100 µM; in assay [4] it was 0.0575 µM; in assay [5] it was 11.3 µM; in assay [6], more than 100 µM.

Consider `CCN1C[C@@H](C)n2c(c(O)c3c(=O)n(Cc4ccc(F)c(Cl)c4)nc(C(=O)NC)c32)C1=O`, for which the GI50 in assay [1] was 1.43 µM; in assay [7] it was 3.26 µM; in assay [2], 1.7 µM; in assay [8], 2.64 µM; in assay [3], 3.16 µM; in assay [4], 2.32 µM. In addition, the figures for the GI50 in assay [5] and in assay [6] were 3.11 µM and 3.34 µM, respectively. In addition, the TGI in assay [1] stood at 4.55 µM; in assay [7] it was 65.7 µM; in assay [2], 4.91 µM; in assay [8], 7.36 µM; in assay [3], 24.7 µM; in assay [4] it was 5.37 µM. Further, the TGI in assay [5] and in assay [6] was more than 100 µM in each case.

For the compound `CN(C)Cc1ccc(O)c(CN(C)C)n1`, the TGI in assay [1], in assay [7], in assay [2], in assay [8], in assay [3] and in assay [4] was more than 100 µM throughout. The TGI in assay [5] and in assay [6] was more than 100 µM each time.

`O=C1NC(c2cccc3ccccc23)Nc2ccc(Cl)cc21` (centres undefined): in assay [7], the GI50 was 0.0129 µM. Further, the TGI in assay [7] was more than 100 µM; in assay [8], 30.3 µM; in assay [3], 11.9 µM; in assay [5] it was 17.2 µM; in assay [6] it was 11.4 µM.

For `CCN1CCCCCCCCCC(=N/O)/C(=N\O)C1`, the TGI in assay [1], in assay [7], in assay [2], in assay [8], in assay [3] and in assay [4] was more than 100 µM each time. Besides, the TGI in assay [5] and in assay [6] was more than 100 µM each time.

Consider `Oc1c(Cl)cc(Cl)c(Cl)c1Cc1c(O)c(Cl)cc(Cl)c1Cl`, for which the GI50 was 0.419 µM in assay [1]; 1.34 µM in assay [7]; 0.274 µM in assay [2]; 1.35 µM in assay [8]; 1.37 µM in assay [3]; 3.39 µM in assay [4]. In addition, the GI50 in assay [5] is 3.06 µM; in assay [6], 0.941 µM. Further, the TGI was found to be 7.12 µM in assay [1]; 13.9 µM in assay [7]; 0.682 µM in assay [2]; 5.53 µM in assay [8]; 12.1 µM in assay [3]; 18.8 µM in assay [4]. Besides, the TGI in assay [5] was found to be 14.4 µM; in assay [6], 16.5 µM.

`CC[C@]1(O)CC2CN(CCc3c([nH]c4ccccc34)C(C(=O)OC)(c3cc4c(cc3OC)N(C=O)[C@H]3[C@@](O)(C(=O)OC)[C@H](OC(C)=O)[C@]5(CC)[C@@H]6C[C@@H]6CN6CC[C@]43[C@@H]65)C2)C1` (some centres undefined): the GI50 in assay [1], in assay [7], in assay [2], in assay [8], in assay [3] and in assay [4] was less than 0.00325 µM in each case. In addition, the GI50 in assay [5] and in assay [6] was less than 0.00325 µM throughout. The TGI in assay [1] was 0.00882 µM; in assay [7], more than 11.7 µM; in assay [2] it was 0.0121 µM; in assay [8], 0.191 µM; in assay [3], more than 13.7 µM; in assay [4], less than 0.00325 µM. The compound also registered a TGI in assay [5] of more than 32.5 µM.

Take `COC(=O)NC1=Nc2ccccc2C(=O)NN1`: the TGI in assay [1], in assay [7], in assay [2], in assay [8], in assay [3] and in assay [4] was more than 100 µM each time. For the same compound, the TGI in assay [5] and in assay [6] was more than 100 µM throughout.

For `COc1ccc(-c2cc(-c3ccc(Cl)cc3)nc(SCCCC(=O)NO)n2)cc1OC`, the GI50 in assay [1] is 1.22 µM; in assay [7] it was 1.63 µM; in assay [2], 1.76 µM; in assay [8], 0.788 µM; in assay [3] it was 1.01 µM; in assay [4], 1.28 µM. For the same compound, the GI50 is 0.578 µM in assay [5] and 0.486 µM in assay [6]. For the same compound, the TGI in assay [1] is 2.8 µM; in assay [7], 5.39 µM; in assay [2], 5.33 µM; in assay [8], 4.29 µM; in assay [3], 6.87 µM; in assay [4], 3 µM. The TGI was 2.76 µM in assay [5] and more than 21 µM in assay [6].
